From patent US20190359645A1, “2'3'-CYCLIC DINUCLEOTIDES COMPRISING CARBOCYCLIC NUCLEOTIDE” (Institute of Organic Chemistry and Biochemistry ASCR, V.V.I., priority 2018, published 2019)

Target: WT STING (Homo sapiens, UniProt Q86WV6, H232R)
Test: Digitonin assay using 293T wtSTING-FL reporter cells
Assay type: cell-based
Parameters: host or cells: 293T (ATCC CRL-3216), stably transfected; also carries the 4xISRE firefly luciferase reporter
Settings: 293T wtSTING-FL cells, digitonin buffer 30 min, then 5 h, ISRE firefly luciferase reporter; read-out: Digitonin assay EC50 WT STING
Description: Two complementary oligonucleotides of the sequence […] […] […] […] (SEQ ID NO: 1) and […] […] (SEQ ID NO:2) containing four interferon-sensitive response elements (ISRE) were synthesized by Sigma Aldrich (Czech Republic, Prague). The oligonucleotides were mixed in equal molar amounts, hybridized, and cleaved by restriction endonucleases HindIII (cat. #. R^0104S, NEB, Ipswich, USA) and BglII (cat. # R^0144S, NEB, Ipswich, USA). Ultimately, they were ligated into plasmid pGL4.27 (cat. # E6651, Promega, Madison, USA) linearized with the same enzymes. As a result, the sequence with four ISRE sites was placed upstream of the minimum promoter of firefly luciferase reporter gene.
293T cells (cat. # CRL-3216, ATCC, Manassas, USA) were seeded a day before transfection at density 125,000 cells per cm^2 onto poly-D-lysine (cat. # P6407, Sigma Aldrich, Czech Republic) coated six well plates in antibiotic free DMEM with high glucose (cat. # D5796, Sigma Aldrich, Czech Republic) supplemented with 10% heat inactivated FBS (cat. # S1520, Biowest, Riverside, USA). On the day of transfection, 2.5 μg of the plasmid pUNO1-hSTING-WT (cat. # punol-hstingwt, InvivoGen, San Diego, USA,) encoding human wild type STING (WT STING) was diluted in 125 μL OptiMEM medium (cat. #31985062, ThermoFisher, Waltham, USA) and mixed with 125 μL of the same medium containing 12.5 μL of Lipofectamine 2000 (cat. #11668019, ThermoFisher, Waltham, USA). After 5 minutes incubation at room temperature (RT), 250 μL of the mixture was added dropwise to the cells in one well. Cells were incubated 36 hours at 37° C. with 5% CO2, and then detached with 0.05% Trypsin and 0.22 g/L EDTA (both cat. # L0941, Biowest, Riverside, USA).
Transfected cells were seeded onto poly-D-lysine coated six well plates at density 50,000 cells per 1 cm^2 in DMEM medium with high glucose containing 10% heat inactivated FBS, […] blasticidin (cat. # ant-bl-05, InvivoGen, San Diego, USA), 0.06 mg/ml Penicillin G and 0.1 mg/ml Streptomycin Sulfate (both cat. #. L0018, Biowest, Riverside, USA). The medium was replenished every 3-4 days until visible colonies of cells resistant to blasticidin were formed.
Blasticidin resistant cells stably expressing WT STING were further transfected with […] plasmid following the same procedure as described above. The transfected cells were selected for the resistance to 300 μg/mL hygromycin (cat. #. 10687010, ThermoFisher, Waltham, USA) in DMEM with high glucose containing 10% heat inactivated FBS, […] blasticidin, 0.06 mg/ml Penicillin G and 0.1 mg/ml Streptomycin Sulfate. Homogeneous culture of stably double transfected cells was prepared by limiting dilution of cells in 96 well plates and wells with cells were selected that originated from a single cell. These cells were expanded, and expression of WT STING was confirmed by western blot using monoclonal mouse anti STING antibodies (cat. #. MAB7169, 1:1000 dilution; […] cat. #. HAF007, 1:2000 dilution, both from R&D Systems, Minneapolis, USA), and by induction of firefly luciferase expression in the presence of 50 μM STING agonist 2′3′ cGAMP (cat. # tlrl-nacga23, InvivoGen, San Diego, USA). Genomic DNA from the transfected cells was amplified with primers pUNO1_Seq_F ([…]) (SEQ ID NO:3) and pUNO1_Seq_R ([…]) (SEQ ID NO:4) that were complementary to pUNO1 plasmid and the presence of WT STING gene in the transfected cells was confirmed by DNA sequencing.
293T wtSTING-FL cells were seeded at density of 250,000 cells per cm^2 onto 96 well poly-D-lysine coated plates in 100 μl DMEM with high glucose supplemented with 10% heat inactivated FBS. […]

WT STING, sequence (Q86WV6 whole entry H232R): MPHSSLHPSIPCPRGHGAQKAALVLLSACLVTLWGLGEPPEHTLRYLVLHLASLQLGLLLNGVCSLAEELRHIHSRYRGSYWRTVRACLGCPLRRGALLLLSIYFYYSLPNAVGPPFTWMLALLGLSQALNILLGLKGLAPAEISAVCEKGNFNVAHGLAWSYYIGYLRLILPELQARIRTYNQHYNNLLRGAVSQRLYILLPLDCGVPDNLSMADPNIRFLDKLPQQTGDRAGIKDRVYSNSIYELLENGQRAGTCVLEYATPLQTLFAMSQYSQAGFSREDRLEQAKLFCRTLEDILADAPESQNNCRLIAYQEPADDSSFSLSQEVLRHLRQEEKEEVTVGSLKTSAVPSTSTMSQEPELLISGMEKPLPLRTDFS

Row | EC50 | Structure (SMILES)
1 | 0.4 µM | C#Cc1cn([C@@H]2O[C@@H]3COP(=O)(O)OC4C(O)[C@@H](COP(=O)(O)OC3C2O)C[C@H]4n2cnc3c(=O)[nH]c(N)nc32)c2ncnc(N)c12 (stereo partly drawn) [Compound 114, (6R,8R,15R,17R)-8-{4-amino-5-ethynyl-7H-pyrrolo 2,3-dlpyrimidin-7-yl}-17-(2-amino-6-oxo-6,9-dihydro-1H-purin-9-yl)-3,9,12,18-tetrahydroxy-2,4,7,11,13-pentaoxa-3λ^5,12λ^5-diphosphatricyclo[13.2.1.0^6,10]octadecane-3,12-dione]
2 | 0.07 µM | Nc1nc2c(ncn2[C@@H]2C[C@@H]3COP(=O)(O)OC4C(O)[C@H](n5cnc6c(Cl)ncnc65)O[C@@H]4COP(=O)(O)OC2C3O)c(=O)[nH]1 (stereo partly drawn) [Compound 115, (6R,8R,15R,17R)-17-(2-amino-6-oxo-6,9-dihydro-1H-purin-9-yl)-8-(6-chloro-9H-purin-9-yl)-3,9,12,18-tetrahydroxy-2,4,7,11,13-pentaoxa-3λ^5,12λ^5-diphosphatricyclo[13.2.1.0^6,10]octadecane-3,12-dione]
3 | 1.7 µM | Nc1nc2c(ncn2[C@@H]2C[C@@H]3COP(=O)(O)OC4C(O)[C@H](n5nnc6c(N)ncnc65)O[C@@H]4COP(=O)(O)OC2C3O)c(=O)[nH]1 (stereo partly drawn) [Compound 116, (6R,8R,15R,17R)-8-{7-amino-3H-[1,2,3]triazolo[4,5-d]pyrimidin-3-yl}-17-(2-amino-6-oxo-6,9-dihydro-1H-purin-9-yl)-3,9,12,18-tetrahydroxy-2,4,7,11,13-pentaoxa-3λ^5,12λ^5-diphosphatricyclo[13.2.1.0^6,10]octadecane-3,12-dione]
4 | 0.05 µM | Nc1nc(N)c2ncn([C@@H]3O[C@@H]4COP(=O)(O)OC5C(O)[C@@H](COP(=O)(O)OC4C3F)C[C@H]5n3cnc4c(=O)[nH]c(N)nc43)c2n1 (stereo partly drawn) [Compound 117, (6R,8R,15R,17R)-17-(2-amino-6-oxo-6,9-dihydro-1H-purin-9-yl)-8-(2,6-diamino-9H-purin-9-yl)-9-fluoro-3,12,18-trihydroxy-2,4,7,11,13-pentaoxa-3λ^5,12λ^5-diphosphatricyclo[13.2.1.0^6,10]octadecane-3,12-dione]
5 | 0.13 µM | Nc1nc2c(ncn2[C@@H]2C[C@@H]3COP(=O)(S)OC4C(O)[C@H](n5cnc6c(N)ncnc65)O[C@@H]4COP(=O)(O)OC2C3O)c(=O)[nH]1 (stereo partly drawn) [Compound 118, (6R,8R,15R,17R)-17-(2-amino-6-oxo-6,9-dihydro-1H-purin-9-yl)-8-(6-amino-9H-purin-9-yl)-3,9,18-trihydroxy-12-sulfanyl-2,4,7,11,13-pentaoxa-3λ^5,12λ^5-diphosphatricyclo[13.2.1.0^6,10]octadecane-3,12-dione]
6 | 0.4 µM | Nc1ncc2ncn([C@@H]3O[C@@H]4COP(=O)(O)OC5C(O)[C@@H](COP(=O)(O)OC4C3O)C[C@H]5n3cnc4c(=O)[nH]cnc43)c2n1 (stereo partly drawn) [Compound 119, (6R,8R,15R,17R)-8-(2-amino-9H-purin-9-yl)-3,9,12,18-tetrahydroxy-17-(6-oxo-6,9-dihydro-1H-purin-9-yl)-2,4,7,11,13-pentaoxa-3λ^5,12λ^5-diphosphatricyclo[13.2.1.0^6,10]octadecane-3,12-dione]
7 | 0.03 µM | Nc1ncnc2c1ncn2[C@@H]1O[C@@H]2COP(=O)(O)OC3C(O)[C@@H](COP(=O)(O)OC2C1O)C[C@H]3n1cnc2c(=O)[nH]cnc21 (stereo partly drawn) [Compound 120, (6R,8R,15R,17R)-8-(6-amino-9H-purin-9-yl)-3,9,12,18-tetrahydroxy-17-(6-oxo-6,9-dihydro-1H-purin-9-yl)-2,4,7,11,13-pentaoxa-3λ^5,12λ^5-diphosphatricyclo[13.2.1.0^6,10]octadecane-3,12-dione]
8 | 0.5 µM | Nc1ncnc2c1ncn2[C@@H]1O[C@@H]2COP(=O)(O)OC3C(O)[C@@H](COP(=O)(O)OC2C1O)C[C@H]3n1cnc2c(=O)[nH]cnc21 (stereo partly drawn) [Compound 121, (6R,8R,15R,17R)-8-(6-amino-9H-purin-9-yl)-3,9,12,18-tetrahydroxy-17-(6-oxo-6,9-dihydro-1H-purin-9-yl)-2,4,7,11,13-pentaoxa-3λ^5,12λ^5-diphosphatricyclo[13.2.1.0^6,10]octadecane-3,12-dione]
9 | 0.14 µM | Nc1ncnc2c1ccn2[C@@H]1O[C@@H]2COP(=O)(O)OC3C(O)[C@@H](COP(=O)(O)OC2C1O)C[C@H]3n1cnc2c(=O)[nH]cnc21 (stereo partly drawn) [Compound 122, (6R,8R,15R,17R)-8-{4-amino-7H-pyrrolo[2,3-d]pyrimidin-7-yl}-3,9,12,18-tetrahydroxy-17-(6-oxo-6,9-dihydro-1H-purin-9-yl)-2,4,7,11,13-pentaoxa-3λ^5,12λ^5-diphosphatricyclo[13.2.1.0^6,10]octadecane-3,12-dione]
10 | 0.3 µM | Cc1cn([C@@H]2O[C@@H]3COP(=O)(O)OC4C(O)[C@@H](COP(=O)(O)OC3C2O)C[C@H]4n2cnc3c(=O)[nH]cnc32)c2ncnc(N)c12 (stereo partly drawn) [Compound 123, (6R,8R,15R,17R)-8-{4-amino-5-methyl-7H-pyrrolo[2,3-d]pyrimidin-7-yl}-3,9,12,18-tetrahydroxy-17-(6-oxo-6,9-dihydro-1H-purin-9-yl)-2,4,7,11,13-pentaoxa-3λ^5,12λ^5-diphosphatricyclo[13.2.1.0^6,10]octadecane-3,12-dione]
11 | 0.4 µM | Nc1ncnc2c1c(I)cn2[C@@H]1O[C@@H]2COP(=O)(O)OC3C(O)[C@@H](COP(=O)(O)OC2C1O)C[C@H]3n1cnc2c(=O)[nH]cnc21 (stereo partly drawn) [Compound 124, (6R,8R,15R,17R)-8-{4-amino-5-iodo-7H-pyrrolo[2,3-d]pyrimidin-7-yl}-3,9,12,18-tetrahydroxy-17-(6-oxo-6,9-dihydro-1H-purin-9-yl)-2,4,7,11,13-pentaoxa-3λ^5,12λ^5-diphosphatricyclo[13.2.1.0^6,10]octadecane-3,12-dione]
12 | 0.21 µM | CSc1ncnc2c1ncn2[C@@H]1O[C@@H]2COP(=O)(O)OC3C(O)[C@@H](COP(=O)(O)OC2C1O)C[C@H]3n1cnc2c(=O)[nH]cnc21 (stereo partly drawn) [Compound 125, (1S,6R,8R,9R,10S,15R,17R,18R)-3,9,12,18-tetrahydroxy-8-[16-(methylsulfanyl)-9H-purin-9-yl]-17-(6-oxo-6,9-dihydro-1H-purin-9-yl)-2,4,7,11,13-pentaoxa-3λ^5,12λ^5-diphosphatricyclo[13.2.1.0^6,10]octadecane-3,12-dione]
13 | 0.05 µM | Nc1ncnc2c1ncn2[C@@H]1O[C@@H]2COP(=O)(O)O[C@@H]3[C@@H](F)[C@@H](COP(=O)(O)O[C@H]2[C@H]1O)C[C@H]3n1cnc2c(=O)[nH]cnc21 [Compound 126, (1S,6R,8R,9R,10S,15R,17R,18S)-8-(6-amino-9H-purin-9-yl)-18-fluoro-3,9,12-trihydroxy-17-(6-oxo-6,9-dihydro-1H-purin-9-yl)-2,4,7,11,13-pentaoxa-3λ^5,12λ^5-diphosphatricyclo[13.2.1.0^6,10]octadecane-3,12-dione]
14 | 0.03 µM | Nc1ncnc2c1ncn2[C@@H]1O[C@@H]2COP(=O)(O)O[C@@H]3[C@H](F)[C@@H](COP(=O)(O)O[C@H]2[C@H]1F)C[C@H]3n1cnc2c(=O)[nH]cnc21 [Compound 127]
